Drawing on patent US8039487B2, “Piperidine-amide derivatives” (Hoffmann-La Roche Inc., priority 2007, dated 2011), this text covers IC50 for 13 compounds.

The structures appear in SMILES notation.

What is called IC50 is the concentration at which inhibition is half-maximal.

This assay concerns the target T1, liver carnitine palmitoyl transferase 1 (L-CPT1) (Homo sapiens, UniProt P50416).
T1 construct: made in house; host or cells: Pichia pastoris strain X-33 (crude cell-free extract)
T1 sequence (P50416 1-773): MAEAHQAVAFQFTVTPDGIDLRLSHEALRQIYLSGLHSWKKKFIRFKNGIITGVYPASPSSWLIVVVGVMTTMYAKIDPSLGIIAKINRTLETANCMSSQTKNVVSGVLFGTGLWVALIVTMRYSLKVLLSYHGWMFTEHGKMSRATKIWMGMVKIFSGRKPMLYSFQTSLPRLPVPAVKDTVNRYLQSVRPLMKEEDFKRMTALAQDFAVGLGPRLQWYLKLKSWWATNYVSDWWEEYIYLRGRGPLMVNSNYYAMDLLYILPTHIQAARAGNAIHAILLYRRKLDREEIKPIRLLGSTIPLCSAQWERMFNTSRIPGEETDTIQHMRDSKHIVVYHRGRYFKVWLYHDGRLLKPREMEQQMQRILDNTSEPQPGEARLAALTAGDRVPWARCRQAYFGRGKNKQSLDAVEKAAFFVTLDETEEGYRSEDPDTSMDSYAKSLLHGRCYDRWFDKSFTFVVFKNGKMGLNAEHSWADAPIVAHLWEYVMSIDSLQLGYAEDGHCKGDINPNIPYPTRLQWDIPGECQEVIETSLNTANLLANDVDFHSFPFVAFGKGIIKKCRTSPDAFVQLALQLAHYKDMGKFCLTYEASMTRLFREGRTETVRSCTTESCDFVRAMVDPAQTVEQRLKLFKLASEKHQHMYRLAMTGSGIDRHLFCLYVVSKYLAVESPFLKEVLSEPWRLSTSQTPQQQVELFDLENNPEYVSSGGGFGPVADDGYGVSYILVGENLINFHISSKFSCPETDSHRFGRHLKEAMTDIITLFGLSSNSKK
Nature of the assay: L-CPT1 inhibition, spectrophotometric CPT activity assay with DTNB (Ellman's reagent). Conditions: human liver CPT1 expressed in P. pastoris, cell extracts; carnitine 500 μM, palmitoyl-CoA 80 μM, DTNB 300 μM, pH 7.4. Type of assay: biochemical. The procedure:
The following tests were carried out in order to determine the activity of the compounds of the present invention. Background information on the performed assays can be found in: Jackson et al., 1999, Biochem. J. 341, 483-489 and Jackson et al., 2000, J. Biol. Chem. 275, 19560-19566.
Human liver and muscle CPT1 cDNAs and rat CPT2 cDNA were subcloned in pGAPZB or pGAPZA, respectively. These plasmids were used to transform P. pastoris strain X-33 via electroporation after the preparation of electrocompetent cells. High copy number clones were selected where necessary using 0.5 or 1 mg/ml Zeocin. Cultures for activity measurements were induced for 16 h in YPD medium (1% yeast extract, 2% peptone, 2% glucose). Crude cell extracts were prepared by disrupting the cells with glass beads or French Press, depending on fermenter sizes. After centrifugation, the cell-free extracts were resuspended in cell breaking buffer (50 mM Tris, pH7.4, 100 mM KCl, 1 mM EDTA) in the presence of a protease inhibitor cocktail, before aliquoting and freezing at −20° C.
CPT activity was measured using a spectrophotometric assay using 5,5′-dithio-bis-(2-nitrobenzoic acid) (DTNB) also called Ellman's reagent. The HS-CoA released on the formation of acylcarnitine from carnitine (500 μM) and palmitoyl-CoA (80 μM) reduced DTNB (300 μM) forming 5-mercapto-(2-nitrobenzoic acid) which absorbed at 410 nm with a molar extinction coefficient of 13600 M^−1cm^−1. The assay buffer contained 120 mM KCl, 25 mM Tris, pH 7.4, 1 mM EDTA. This assay was used for the identification of selective inhibitors of the liver CPT1 isoform versus the muscle CPT1 and CPT2 isoforms.
On the technique in general: In Ellman's method for cholinesterases, released thiocholine reacts with DTNB.
With `CS(=O)(=O)c1ccc(-c2csc([C@H]3CCCCN3C(=O)COc3ccccc3)n2)cc1` [Example 12, 1-{(R)-2-[4-(4-Methanesulfonyl-phenyl)-thiazol-2-yl]-piperidin-1-yl}-2-phenoxy-ethanone], the IC50 was 141 nM.

On to `Cc1sc([C@H]2CCCCN2C(=O)COc2ccccc2)nc1-c1cccc(C(=O)O)c1` [Example 46, 3-{5-Methyl-2-[(R)-1-(2-phenoxy-acetyl)-piperidin-2-yl]-thiazol-4-yl}-benzoic acid], for which half-maximal inhibition (IC50) required 100 nM.

`COc1ccccc1-c1csc([C@H]2CCCCN2C(=O)COc2ccccc2)n1` [Example 11, 1-{(R)-2-[4-(2-Methoxy-phenyl)-thiazol-2-yl]-piperidin-1-yl}-2-phenoxy-ethanone] returned an IC50 of 272 nM.

Compound `O=C(COc1ccccc1)N1CCCC[C@@H]1c1csc(-c2ccc(C(F)(F)F)nc2)n1` [Example 27, 2-Phenoxy-1-{(R)-2-[2-(6-trifluoromethyl-pyridin-3-yl)-thiazol-4-yl]-piperidin-1-yl}-ethanone] gave an IC50 of 313 nM.

In turn, `O=C(COc1ccccc1)N1CCCC[C@@H]1c1nc(-c2ccc(O)cc2)cs1` [Example 16, 1-{(R)-2-[4-(4-Hydroxy-phenyl)-thiazol-2-yl]-piperidin-1-yl}-2-phenoxy-ethanone] returned an IC50 of 79.6 nM.

The compound `COc1ccc(Cl)cc1-c1csc([C@H]2CCCCN2C(=O)COc2ccccc2)n1` [Example 9, 1-{(R)-2-[4-(5-Chloro-2-methoxy-phenyl)-thiazol-2-yl]-piperidin-1-yl}-2-phenoxy-ethanone] registered a concentration for half-maximal inhibition (IC50) of 247 nM.

As to `O=C(COc1ccccc1)N1CCCC[C@@H]1c1nc(-c2ccc3c(c2)OCO3)cs1` [Example 17, 1-[(R)-2-(4-Benzo[1,3]dioxol-5-yl-thiazol-2-yl)-piperidin-1-yl]-2-phenoxy-ethanone], the IC50 is 134 nM.

`O=C(COc1ccccc1)N1CCCC[C@@H]1c1csc(-c2ccc(F)cc2)n1` [Example 35, 1-{(R)-2-[2-(4-Fluoro-phenyl)-thiazol-4-yl]-piperidin-1-yl}-2-phenoxy-ethanone] returned an IC50 of 155 nM.

For the compound `O=C(COc1ccccc1)N1CCCC[C@@H]1c1nc(-c2ccc(Br)s2)cs1` [Example 23, 1-{(R)-2-[4-(5-Bromo-thiophen-2-yl)-thiazol-2-yl]-piperidin-1-yl}-2-phenoxy-ethanone], half-maximal inhibition (IC50) was put at 88.6 nM.

For the compound `O=C(O)c1cccc(-c2csc([C@H]3CCCCN3C(=O)COc3ccccc3)n2)n1` [Example 42, 6-{2-[(R)-1-(2-Phenoxy-acetyl)-piperidin-2-yl]-thiazol-4-yl}-pyridine-2-carboxylic acid], the half-inhibitory concentration (IC50) turned out to be 37.7 nM.

`O=C(COc1ccccc1)N1CCCC[C@@H]1c1nc(-c2cccnc2)cs1` [Example 8, 2-Phenoxy-1-[(R)-2-(4-pyridin-3-yl-thiazol-2-yl)-piperidin-1-yl]-ethanone]: inhibition was half-maximal at 25 nM (IC50).

`O=C(O)c1cccc(-c2csc([C@H]3CCCCN3C(=O)COc3ccccc3)n2)c1` [Example 44, Sodium; 3-{2-[(R)-1-(2-phenoxy-acetyl)-piperidin-2-yl]-thiazol-4-yl}-benzoate]: the IC50 came to 24.1 nM.

`CC(=O)Nc1ccc(-c2nc([C@H]3CCCCN3C(=O)COc3ccccc3)cs2)cc1` [Example 25, N-(4-{4-[(R)-1-(2-Phenoxy-acetyl)-piperidin-2-yl]-thiazol-2-yl}-phenyl)-acetamide]: the IC50 turned out to be 164 nM.
